Legend:
Format in all cases: cell-based, yeast
[1] = system: transformed cells TM182-CRE1-CYC1IPT4; assay: Liquid culture of transformed cell TM182-CRE1-CYC1IPT4 with examinee substance, absorbance; details: Table 3, TM182-CRE1-CYC1-IPT4, 1 μL of 200 ppm DMSO solution per 100 μL, DOHLU+Glu, 30° C. for 24 hours
Protocol: (§1) The thus obtained culture solutions were diluted with DOHLU+Glu culture medium so that OD600 became 0.200, and then the diluted ones were further diluted with DOHLU+Glu culture medium at a dilution rate of 1/200 to obtain diluted pre-cultured solutions.
(§2) A 96-well assay plate was prepared by filling each well with 1 μL of a DMSO solution of an examinee substance (Abscisic acid or 6-Benzyl aminopurine). In this regard, it is to be noted that the DMSO solution of a examinee substance was prepared so that the concentration thereof became 200 ppm. Simultaneously, an assay plate was prepared by filling each well with 1 μL of DMSO as a blank section.
(§3) Each of the diluted pre-cultured solutions was added in a volume of 100 μL per each well of both of the assay plates, and was cultured at 30° C. for 24 hours. After incubation, the turbidity of each well was measured using a plate reader. The absorbance (OD600) of each of the culture solutions of the transformed cells containing the examinee substance was shown in Table 3. […] Further, the growth speeds of the transformed cells TM182-CRE1-CYC1IPT4 and TM182-CRE1-ADHIPT5 in the culture medium to which 6-Benzyl aminopurine was added were faster than those in the culture medium to which only DMSO was added.

cytokinin receptor AHK3 = target: T1, cytokinin receptor AHK3 (Arabidopsis thaliana, UniProt Q9C5U1); assay: Agonist-activity to cytokinin receptor, optical density of TM182-AHK3 liquid culture; parameters: expressed in transfected cells; host or cells: yeast strain TM182 carrying plasmid p415CYC-AHK3 (pHM-1 backbone, CYC1 promoter); details: TM182-AHK3, examinee substance 100 μM, DOLU+Glu, 30° C. for 24 hours
T1 sequence (Q9C5U1 1-1036): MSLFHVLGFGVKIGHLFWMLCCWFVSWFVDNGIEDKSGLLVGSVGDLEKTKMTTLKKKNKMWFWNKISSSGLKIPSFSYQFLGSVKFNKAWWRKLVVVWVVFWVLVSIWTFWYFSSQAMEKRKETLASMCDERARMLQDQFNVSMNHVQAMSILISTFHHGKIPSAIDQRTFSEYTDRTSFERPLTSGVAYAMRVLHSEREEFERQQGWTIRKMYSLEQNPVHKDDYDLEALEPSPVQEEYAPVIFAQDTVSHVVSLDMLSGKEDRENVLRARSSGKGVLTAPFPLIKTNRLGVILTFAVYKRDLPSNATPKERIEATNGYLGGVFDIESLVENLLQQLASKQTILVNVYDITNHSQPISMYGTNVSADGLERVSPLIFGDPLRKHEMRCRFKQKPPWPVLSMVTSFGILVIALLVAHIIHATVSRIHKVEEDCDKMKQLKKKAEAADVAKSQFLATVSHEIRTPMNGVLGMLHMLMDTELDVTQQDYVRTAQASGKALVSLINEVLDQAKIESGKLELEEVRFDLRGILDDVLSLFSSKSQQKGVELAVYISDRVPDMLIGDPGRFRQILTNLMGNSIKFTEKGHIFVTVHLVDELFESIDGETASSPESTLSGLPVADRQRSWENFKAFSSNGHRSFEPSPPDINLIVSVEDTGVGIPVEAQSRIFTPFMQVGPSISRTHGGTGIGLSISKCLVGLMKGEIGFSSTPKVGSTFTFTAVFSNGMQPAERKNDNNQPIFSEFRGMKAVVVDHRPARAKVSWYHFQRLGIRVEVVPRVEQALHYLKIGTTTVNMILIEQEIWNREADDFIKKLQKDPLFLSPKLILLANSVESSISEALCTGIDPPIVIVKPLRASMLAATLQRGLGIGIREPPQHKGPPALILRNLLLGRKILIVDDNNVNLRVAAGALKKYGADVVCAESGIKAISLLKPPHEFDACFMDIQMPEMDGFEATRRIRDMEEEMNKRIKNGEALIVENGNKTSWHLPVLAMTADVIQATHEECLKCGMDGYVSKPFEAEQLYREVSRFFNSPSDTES
Protocol: The transformed cells TM182-AHK2, TM182-AHK2Δ and TM182-AHK3 produced in the reference example 1 were inoculated in 200 ml of DOLU+Gal culture media and pre-cultured at 30° C. for 36 hours. The pre-cultured solutions were diluted with DOLU+Glu media as to become 0.100 as the optical density (OD600) and further the resultants were diluted with DOLU+Glu media at a dilution rate of 1/200 to obtain diluted pre-cultured solutions.
An assay plate was prepared by filling respective wells of a 96-well plate with 20 μl of solutions which were prepared by diluting DMSO solution (10 mM) of each examinee substance with DOLU+Glu medium at a dilution rate of 1/100, said solutions containing each examinee substance to be […]. […]
The diluted pre-cultured solutions were added in 200 μl each into the respective wells of both assay plates and cultured at 30° C. for 24 hours and then the optical density (OD620) of each well was measured by a plate reader. The agonist-activity of the examinee substances to the cytokinin receptor was detected by comparing the optical density measured in the testing sections to which the examinee substances were added with the optical density measured in the blank sections.

[2] = system: transformed cells TM182-CRE1-ADHIPT4; assay: Liquid culture of transformed cell TM182-CRE1-ADHIPT4 with examinee substance, absorbance; details: Table 4, TM182-CRE1-ADH-IPT4, 1 μL of 200 ppm DMSO solution per 100 μL, DOHLU+Glu, 30° C. for 24 hours
Protocol: as §1, §2
as §3, with “4.” for “3.”, “TM182-CRE1-ADHIPT4, TM182-AHK2-CYC1IPT4, TM182-AHK2-CYC1IPT5” for “TM182-CRE1-CYC1IPT4”, “TM182-AHK2-ADHIPT5” for “TM182-CRE1-ADHIPT5”

Row | SMILES | absorbance (OD600) of the culture solution [1] | optical density (OD620) of the culture solution (cytokinin receptor AHK3) | absorbance (OD600) of the culture solution [2]
1 | CC1=CC(=O)CC(C)(C)[C@@]1(O)/C=C/C(C)=C\C(=O)O [Compound A, Abscisic acid] | 0.102 | 0.54 | 0.045
2 | c1ccc(CNc2ncnc3nc[nH]c23)cc1 [Compound B, 6-Benzyl aminopurine] | 0.260 | 0.88 | 0.058
